Where two headings read alike, the source gives them in different places.
Assays:
[1] = tested on: gastric emptying of rats; test: Activity to gastric emptying of TRPA1 agonist (phenol red, rats); format: in vivo; conditions: Rattus norvegicus, read-out: ED50 (amount which suppresses 50% of gastric emptying)
Description: When EC cell is stimulated by content of a gastrointestinal tract, 5-HT is secreted. The secreted 5-HT promotes the secretion or motility through a 5-HT receptor present in intestinal nerve plexus or gastrointestinal smooth muscle. The secreted 5-HT is instantly taken into a cell by its specific transporter, and is metabolized by […]. Thus, while it is considerably difficult to directly measure the secreted 5-HT concentration, it has been known that gastric emptying is delayed as a physiological activity through 5-HT in rodents. In order to verify in vivo activity through 5-HT of the compound to be tested, activity to gastric emptying of rats by various TRPA1 agonists was studied.
In the experiment, male wistar rats (body weight 290 to 360 g) were used. The animals were purchased from Japan SLC (Shizuoka). The animals were allowed to drink water freely under a constitutive environment.
5 minutes after the medicine was orally administered, 0.05% phenol red solution (1.5 mL) was orally administered. After 15 minutes, rats were put painlessly to death by cervical vertebral dislocation, their stomachs were exenterated, and phenol red was eluted with 0.1M aqueous NaOH solution (5 mL) from the exenterated stomachs. 20% aqueous trichloroacetic acid solution (0.1 mL) was added to the NaOH solution (0.5 mL), followed by stirring and centrifugation at 15,000 rpm, at 4° C., for 10 minutes. 0.5M aqueous NaOH solution (0.2 mL) was added to the supernatant (0.05 mL), followed by stirring, and absorbance at 560 nm was measured using an absorption spectrometer (spectrometer spectramax M2; Molecular Devices, CA, USA).
A gastric emptying was calculated by the following calculating formula.
Gastric emptying (%)=100−(A/B)×100
A: amount of phenol red remaining in stomach
B: amount of phenol red remaining in stomach just after administering phenol red
ED50 values (amount of the compound to be tested which suppresses 50% of gastric emptying, with respect to the control animals without administering the compound to be tested) of some of the compounds of the formula (I) are shown in Table 2. In this connection, comparative compound 1 and comparative compound 2 are (3E)-1-methyl-3-(2-oxopropyridene)-1,3-dihydro-2H-indol-2-one, and (3E)-3-(2-oxopropyridene)-1-prop-2-in-1-yl-1,3-dihydro-2H-indol-2-one described in Non Patent Document 4 above, and has the following chemical structures, respectively.

[2] = tested on: delay of discharging time induced by loperamide in mice; test: Loperamide induced constipation model (glass bead discharging time); format: in vivo; conditions: Mus musculus, read-out: ED50 (amount which suppresses 50% of the delay of discharging time induced by loperamide)
Procedure: It has been known that loperamide as a μ opioid receptor agonist causes convulsive contraction in intestinal tracts. Thus, a delay in the intestinal transport ability due to loperamide is thought as a constipation IBS model.
Mice (Slc:ddY, five-week old, male) fasted from the previous evening of the experiment. On the day of the experiment, the mice were acclimatized to cages for measurement for 1 hour or more, and 0.3 mg/kg of loperamide was administered subcutaneously. After 30 minutes, a compound to be tested was administered orally, ether anesthesia was applied to the mice immediately thereafter, glass beads having diameter of 3 mm were inserted to 2 cm from anus. The mice were returned to the cages for measurement, and the time from waking to discharging of the glass beads was measured. Furthermore, the compound to be tested was dissolved into 10% DMSO, 10% cremophor, and 80% distillated water.
As a result, it has been recognized that there was a delay in the beads discharging time of the loperamide administration group (vehicle group) in comparison with the loperamide non-administration group (control group).
ED50 values (amount of the compound to be tested which suppresses 50% of the delay of discharging time induced by loperamide) of some of the compounds of the formula (I) are shown in Table 3. In this connection, comparative compound 1 is the same compound as comparative compound 1 in Test Example 4.

[3] = tested on: RIN14B cells; test: Measurement of 5-HT secretion from RIN14B; format: cell-based; conditions: 20 minutes at 37° C., relative to 300 μM allyl isothiocyanate = 100%, HBSS only = 0%
Procedure: In order to investigate whether TRPA1 is related to 5-HT release, 5-HT secretion promotion from RIN14B by a compound to be tested was measured.
The RIN14B cells cultivated in a petri dish were scraped using Phosphate buffered saline (PBS) containing 1 mM EDTA, distributed into 24 well plates, and cultivated for 2 days. As a medium, a medium in which 10% fetal bovine serum (ICN), 100 U/mL penicillin, and 100 μg/mL streptomycin was added to RPMI1640 (Invitrogen), was used. The cells were washed once with HBSS (Invitrogen) and added with 0.1% BSA and 10 μM fluoxetine (TOCRIS Co.), followed by dilution with the above HBSS, the prepared compound to be tested was added to RIN14B cells, followed by cultivation at 37° C., under 5% CO2 condition for 20 minutes. After cultivation, supernatant of cells was recovered, followed by freeze preservation. The content of 5-HT in the supernatant was measured by a commercial serotonin immunoassay kit (Beckman). 5-HT release promotion activation value (%) was evaluated as a relative value when the 5-HT release promotion value by 300 μM of allyl isothiocyanate was defined as 100%, and the 5-HT release promotion value by HBSS for dilution only was defined as 0%.

[4] = target: T1, human TRPA1 (Homo sapiens, UniProt O75762, K186N/R3C/R58T); test: Measurement of TRPA1 activation activity (intracellular calcium, FLIPR, HEK293 cells stably expressing human TRPA1); format: cell-based; conditions: change of intracellular calcium concentration
T1 construct: expressed in transfected cells; pcDNA3.1(+) vector)
T1 sequence (O75762 whole entry R3C/R58T/K186N): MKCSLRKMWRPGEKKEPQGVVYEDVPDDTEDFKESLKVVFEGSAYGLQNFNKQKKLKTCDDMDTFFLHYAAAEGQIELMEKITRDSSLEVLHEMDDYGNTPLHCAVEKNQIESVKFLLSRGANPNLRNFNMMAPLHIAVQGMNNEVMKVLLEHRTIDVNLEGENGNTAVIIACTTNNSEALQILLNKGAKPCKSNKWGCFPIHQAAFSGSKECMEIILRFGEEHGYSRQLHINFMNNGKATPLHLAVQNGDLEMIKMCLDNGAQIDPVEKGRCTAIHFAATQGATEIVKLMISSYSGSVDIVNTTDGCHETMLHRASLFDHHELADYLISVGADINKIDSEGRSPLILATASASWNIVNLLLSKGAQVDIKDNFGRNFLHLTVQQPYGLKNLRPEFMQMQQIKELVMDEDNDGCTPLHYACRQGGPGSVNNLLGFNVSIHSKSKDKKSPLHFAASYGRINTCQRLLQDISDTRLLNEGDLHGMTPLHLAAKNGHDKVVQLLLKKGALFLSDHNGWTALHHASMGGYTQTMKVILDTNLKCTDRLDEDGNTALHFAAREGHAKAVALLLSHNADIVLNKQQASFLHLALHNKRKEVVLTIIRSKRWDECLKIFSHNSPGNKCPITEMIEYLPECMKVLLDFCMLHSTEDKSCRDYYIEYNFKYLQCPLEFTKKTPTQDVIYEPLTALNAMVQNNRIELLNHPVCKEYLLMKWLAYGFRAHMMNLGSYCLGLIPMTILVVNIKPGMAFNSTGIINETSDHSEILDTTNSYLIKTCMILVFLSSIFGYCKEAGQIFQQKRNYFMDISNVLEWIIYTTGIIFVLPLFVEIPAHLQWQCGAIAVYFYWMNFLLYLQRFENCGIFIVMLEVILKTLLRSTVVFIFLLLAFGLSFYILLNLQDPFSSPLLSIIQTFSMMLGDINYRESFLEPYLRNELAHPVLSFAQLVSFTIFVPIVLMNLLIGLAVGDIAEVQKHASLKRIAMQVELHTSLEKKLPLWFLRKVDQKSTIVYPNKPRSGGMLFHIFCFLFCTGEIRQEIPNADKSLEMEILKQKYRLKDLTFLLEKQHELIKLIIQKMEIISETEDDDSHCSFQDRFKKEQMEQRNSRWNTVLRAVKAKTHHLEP
Procedure: 10 ng of Human brain mRNA (Clontech Co.) was treated with DNase, and then was reverse transcribed using kit for reverse transcription-polymerase chain reaction (RT-PCR) (SUPERSCRIPT First-Strand Synthesis System for RT-PCR; Invitrogen Co.) to synthesize the first strand cDNA. PCR using a hot start method was performed using the first strand cDNA as a template and Taq DNA polymerase (LA Taq DNA polymerase; TAKARA SHUZO). The PCR was performed using oligonucleotides consisting of the nucleotide sequences, represented by sequence number 2 as a sense primer and sequence number 3 as an antisense primer, in which firstly, heat denaturation was performed at 98° C. (1 minute), and then a cycle of 98° C. (15 seconds)/56° C. (30 seconds)/72° C. (5 minutes) was repeated 35 times. As a result, a DNA fragment of about 3.3 kbp was amplified.
The DNA fragment was cloned to pCR-TOPO vector using a cloning kit (TOPO XL PCR Cloning Kit; Invitrogen). The obtained plasmid DNA was digested with restriction enzymes KpnI and HindIII, and then was cloned using plasmid pcDNA 3.1(+)(Invitrogen). In this connection, the plasmid pcDNA 3.1(+) has a promoter sequence derived from cytemegalovirus, and can be used in order to express a protein in animal cells.
The nucleotide sequences of the obtained clones were analyzed using DNA sequencer (ABI3700 DNA Sequencer; Applied Biosystems) by dideoxyterminator method, and the nucleotide sequence represented by sequence number 1 was obtained. Furthermore, when these sequences were translated to amino acid sequences, the amino acid sequence represented by sequence number 1 was obtained.
After constructing the expression vector of the human TRPA1 gene, selection by G418 was performed from the HEK293 cells which temporarily expressed TRPA1 by transfection operation to obtain cells stably expressing TRPA1. The above operation was performed according to known methods (experimental medicine supplementary volume, “Cultivation Cell Experimental Methods for Molecular Biology Study” published by Toshio Kuroki, Namho Hue and Kazuhiro Chida, 1995, Yodosha).
In order to measure the change of the intracellular calcium concentration in the cells stably expressing the human TRPA1, the change of the intracellular calcium concentration when a compound to be tested was added was measured using FLIPR (Molecular Device).
In order to measure the change of the intracellular calcium concentration with FLIPR, the following pretreatment was performed. First of all, assay buffer was prepared which was for adding fluorescent pigment Fluo4-AM (DOJIN) to the cells or washing the cells just before performing FLIPR assay. To a solution (hereinafter, HBSS/HEPES solution) where 20 mL of 1M HEPES (pH 7.4; Invitrogen) was added to 1000 mL of a physiological saline buffer (Hank's Balanced Salt Solution; HBSS) (Invitrogen), was added 10 mL of a solution where 710 mg of probenecid (Sigma) was dissolved into 5 mL of 1M aqueous NaOH solution and 5 mL of HBSS/HEPES solution was further added and mixed, and the assay buffer was thus prepared. Then, 50 μg of Fluo4-AM was dissolved into 22 μL of DMSO (DOJIN), the same amount of 20% pluronic acid (Molecular Probes) was added thereto and mixed, and the mixture was added to the 10.6 mL of the assay buffer where 105 μL of fetal bovine serum was added, to prepare a fluorescent pigment solution. The medium of the cells stably expressing TRPA1 was removed, 100 μL per well of the fluorescent pigment solution was dispensed immediately, followed by cultivation in a CO2 cultivator for 1 hour, and the fluorescent pigment was soaked in the cells. The cells after cultivation were washed using the assay buffer, followed by being set in FLIPR. Furthermore, a test sample, which was added to the cells stably expressing TRPA1, was prepared by using the assay buffer, and at the same time, was set in FLIPR. […]

[5] = target: Cytochrome P450(2D6) (Homo sapiens, UniProt P10635); test: Cytochrome P450(2D6) enzyme inhibition test; format: in vitro ADME; conditions: CYP2D6, fluorescent substrate 1.5 μmol/L, 37° C., 20 minutes
Sequence of Cytochrome P450(2D6) (P10635 whole entry): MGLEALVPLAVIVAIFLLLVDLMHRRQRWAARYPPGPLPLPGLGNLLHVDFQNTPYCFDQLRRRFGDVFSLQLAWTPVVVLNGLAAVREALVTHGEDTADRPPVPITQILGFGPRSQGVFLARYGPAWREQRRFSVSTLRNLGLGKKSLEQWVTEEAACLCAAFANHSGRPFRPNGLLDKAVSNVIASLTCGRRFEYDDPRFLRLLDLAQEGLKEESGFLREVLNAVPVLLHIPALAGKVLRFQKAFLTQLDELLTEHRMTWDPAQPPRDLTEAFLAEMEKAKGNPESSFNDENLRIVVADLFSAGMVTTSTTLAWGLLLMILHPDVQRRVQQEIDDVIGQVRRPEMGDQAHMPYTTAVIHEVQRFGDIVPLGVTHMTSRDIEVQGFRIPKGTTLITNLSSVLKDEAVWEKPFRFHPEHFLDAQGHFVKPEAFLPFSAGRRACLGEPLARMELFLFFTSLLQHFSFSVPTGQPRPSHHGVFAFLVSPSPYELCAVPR
Procedure: The experiment was performed in accordance with the method of Crespi et al. (Analytical Biochemistry, 248, 188-190, 1997).
As a substrate, 3-[2-(N,N-diethyl-N-methylamino)ethyl]-7-methoxy-4-methyl coumarine (1.5 μmol/L) a compound to be tested (3.1×10^−7 to 2×10^−5 M) and an enzyme (2.5×10^−8 M) were incubated at 37° C. for 20 minutes in total of […] of 100 mM phosphorous buffer (pH=7.4) including 8.2 mM NADP+, 0.41 mM glucose-6-phosphate, 0.41 mM MgCl2 and 0.4 Units/mL glucose-6-phosphate dehydrogenase, using 96 well plates. Then, 0.5 M aqueous 2-amino-2-hydroxymethyl-1,3-propandiol solution containing 80% acetonitrile was added to stop the reaction, fluorescence intensity (excitation wavelength; 390 nm, fluorescent wavelength; 460 nm) was measured with a fluorescent plate reader. An inhibition ratio was calculated with the following formula, and the test compound concentration when the inhibition ratio is 50% (IC50) was obtained.
C1: fluorescence intensity in the presence of the test compound and enzyme at know concentrations, and the substrate
C0: fluorescence intensity in the presence of the enzyme and substrate, without the test compound
B1: fluorescence intensity of blank well

[6] = male wistar rats, oral administration, versus control animals
[7] = mice (Slc:ddY, male), 0.3 mg/kg loperamide subcutaneously, compound orally

SMILES | ED50 [1, 6] [mg/kg] | ED50 [2, 7] [mg/kg] | 5-HT release promotion activation value [3] [%] | EC50 [4] [nM] | ED50 ([1]; po) [mg/kg] | ED50 [2] [mg/kg] | melting point [°C] | IC50 [5] [µM]
CC(=O)/C=C1/C(=O)N(C)c2ccccc21 [comparative compound 1, (3E)-1-methyl-3-(2-oxopropyridene)-1,3-dihydro-2H-indol-2-one, reference compound] | 2.8 | 2.5 |  |  |  |  |  | 
COC(=O)c1cccc(CN2C(=O)/C(=C/C(N)=O)c3ccccc32)c1 [Example 4, methyl 3-{[(3E)-3-(2-amino-2-oxoethylidene)-2-oxo-2,3-dihydro-1H-indol-1-yl]methyl}benzoate] |  |  | 144.6 | 1200 |  |  |  | 
O=C(O)/C=C1/C(=O)N(CC2CCC2)c2ccccc21 [Example 24] |  |  |  |  | 0.53 | 0.27 |  | 
O=C(O)/C=C1/C(=O)N(CC2CCC2)c2c(F)cccc21 [Example 32, (2E)-[1-(cyclobutylmethyl)-7-fluoro-2-oxo-1,2-dihydro-3H-indol-3-ylidene]acetic acid] | 0.21 |  |  | 1160 |  |  | 166 to 168 | > 50
CC(C)CN1C(=O)/C(=C/C(=O)O)c2cc(F)ccc21 [Example 27] |  |  | 40.0 | 4630 |  |  |  | 
CC(C)CN1C(=O)/C(=C/C(=O)O)c2cccc(Cl)c21 [Example 31, (2E)-(7-chloro-1-isobutyl-2-oxo-1,2-dihydro-3H-indol-3-ylidene)acetic acid] |  | 0.24 |  | 610 |  |  | 142 to 144 | 
O=C(O)/C=C1/C(=O)N(Cc2ccccc2)c2ccc(F)cc21 [Example 17, (2E)-(1-benzyl-5-fluoro-2-oxo-1,2-dihydro-3H-indol-3-ylidene)acetic acid] | 0.31 |  |  | 4450 |  |  | 177 to 179 | > 20
CC(C)CN1C(=O)/C(=C/C(=O)O)c2ccccc21 [Example 13] | 0.98 | 0.4 |  |  |  |  |  | 
CCC(CC)CN1C(=O)/C(=C/C(=O)N2CCOCC2)c2cccc(F)c21 [Example 45, (3E)-1-(2-ethylbutyl)-7-fluoro-3-(2-morpholin-4-yl-2-oxoethylidene)-1,3-dihydro-2H-indol-2-one] |  |  |  | 1290 | 0.57 |  | 102 to 104 | 18
O=C(O)/C=C1/C(=O)N(CC2CCCCC2)c2ccccc21 [Example 15, (2E)-[1-(cyclohexylmethyl)-2-oxo-1,2-dihydro-3H-indol-3-ylidene]acetic acid] |  |  | 97.4 | 4400 |  |  | 137 to 139 | > 20

From US20110009379A1, “INDOLINONE COMPOUND” (ASTELLAS PHARMA INC., priority 2008, published 2011)
